Here are results for 15 compounds from patent US11485733B2, “Azaquinoline derivatives” (BAYER ANIMAL HEALTH GMBH, priority 2017, dated 2022).

In test [1] the target is D. immitis Slo-1 (Dirofilaria immitis, UniProt I0DFK5). The test is described as follows: D. immitis Slo-1, action at a recombinant CHO cell line (membrane potential, FLIPR). In kind it is cell-based.
The test system of test [2] is Nippostrongylus brasiliensis. Description: Nippostrongylus brasiliensis (NIPOBR) adult worms, acetylcholine esterase readout. The settings on record: read-out: activity (reduction of AChE compared to negative control); for inhibition at 1 µg/mL: at 1 μg/ml (1 ppm); for inhibition at 10 µg/mL: at 10 μg/ml (10 ppm). A digest of the protocol: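 Adult worms washed in saline with penicillin/streptomycin/amphotericin B, then incubated in medium with test compound (DMSO) at final 10 μg/ml (10 ppm) or 1 μg/ml (1 ppm). Acetylcholine esterase activity in a medium aliquot served as anthelmintic readout, compared with negative control.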

Test [3] concerns Dirofilaria immitis microfilariae. The test is described as follows: Dirofilaria immitis microfilariae (DIROIM L1) motility. As to conditions: 72 h, read-out: EC50 (reduction of motility).
Test [4] has as its system Dirofilaria immitis. The test is described as follows: Dirofilaria immitis (DIROIM L4) larval motility. The settings on record: 72 h, read-out: EC50 (reduction of motility).
In test [5] the test system is Cooperia curticei. Description: Cooperia curticei larval mortality. The settings on record: 120 h, read-out: activity (percentage of larval mortality).
Protocol: In Vitro Assay 6: Cooperia curticei
Solvent: Dimethyl Sulfoxide
Approximately 40 nematode larvae (Cooperia curticei) are transferred into a test tube containing the compound solution.
After 5 days percentage of larval mortality is recorded. 100% efficacy means all larvae are killed; 0% efficacy means no larvae are killed.
Test [6] relates to Haemonchus contortus. Description: Haemonchus contortus larval mortality. As to conditions: 120 h, read-out: activity (percentage of larval mortality).
Protocol: In Vitro Assay 7: Haemonchus contortus
Solvent: Dimethyl Sulfoxide
Approximately 40 larvae of the red stomach worm (Haemonchus contortus) are transferred into a test tube containing compound solution.
After 5 days the percentage of larval mortality is recorded. 100% efficacy means all larvae are killed, 0% efficacy means no larvae are killed.
The target of test [7] is C. elegans Slo-1a (Caenorhabditis elegans, UniProt Q95V25). As to conditions: pE50 (negative decadic logarithm of EC50), CHO cells expressing C. elegans Slo-1a; voltage sensitive dye, 70 mM KCl.
Sequence of C. elegans Slo-1a (Q95V25 whole entry): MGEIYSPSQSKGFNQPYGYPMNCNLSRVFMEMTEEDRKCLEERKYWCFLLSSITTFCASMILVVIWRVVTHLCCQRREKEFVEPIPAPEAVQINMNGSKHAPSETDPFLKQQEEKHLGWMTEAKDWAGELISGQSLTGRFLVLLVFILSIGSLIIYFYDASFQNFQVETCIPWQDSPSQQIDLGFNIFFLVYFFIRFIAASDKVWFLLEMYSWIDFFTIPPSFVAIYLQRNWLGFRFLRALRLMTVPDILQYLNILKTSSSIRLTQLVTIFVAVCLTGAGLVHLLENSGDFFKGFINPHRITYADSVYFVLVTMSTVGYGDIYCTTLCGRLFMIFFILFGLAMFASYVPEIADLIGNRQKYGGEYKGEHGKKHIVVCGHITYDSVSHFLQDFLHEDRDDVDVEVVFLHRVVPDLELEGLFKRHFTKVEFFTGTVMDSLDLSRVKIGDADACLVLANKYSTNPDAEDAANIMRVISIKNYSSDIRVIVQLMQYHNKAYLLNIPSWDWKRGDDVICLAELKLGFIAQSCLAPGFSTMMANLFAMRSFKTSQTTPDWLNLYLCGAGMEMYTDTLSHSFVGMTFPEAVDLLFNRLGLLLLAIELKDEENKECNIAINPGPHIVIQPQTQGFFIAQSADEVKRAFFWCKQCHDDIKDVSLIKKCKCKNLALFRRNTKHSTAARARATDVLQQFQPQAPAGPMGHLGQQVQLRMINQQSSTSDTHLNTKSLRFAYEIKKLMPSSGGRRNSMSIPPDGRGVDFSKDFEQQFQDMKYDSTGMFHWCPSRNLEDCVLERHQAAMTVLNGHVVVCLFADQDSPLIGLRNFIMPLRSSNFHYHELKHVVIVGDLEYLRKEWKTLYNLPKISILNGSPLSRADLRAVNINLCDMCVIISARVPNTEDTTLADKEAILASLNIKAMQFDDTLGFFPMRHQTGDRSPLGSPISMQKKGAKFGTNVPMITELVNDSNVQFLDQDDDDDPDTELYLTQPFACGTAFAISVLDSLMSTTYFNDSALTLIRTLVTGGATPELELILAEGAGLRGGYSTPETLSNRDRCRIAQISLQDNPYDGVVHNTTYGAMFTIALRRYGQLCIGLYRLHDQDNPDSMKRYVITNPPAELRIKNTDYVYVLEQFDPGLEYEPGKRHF
Test [8] concerns Litomosoides sigmodontis third-stage larvae. Description: Litomosoides sigmodontis (LTMOSI L3) larval motility. As to conditions: 72 h, read-out: EC50 (reduction of motility).
Protocol: In Vitro Assay 6: Litomosoides sigmodontis (LTMOSI L3)
10 Litomosoides sigmodontis third-stage larvae, which were freshly isolated from the pleural cavity of an infected rodent, were added to wells of a microtitre plate containing a nutrient medium and the test compound in DMSO. Compounds were tested in concentration-response assay in duplicate. Larvae exposed to DMSO and no test compounds were used as negative controls. Larvae were evaluated after 72 h of incubation with the compound. Efficacy was determined as the reduction of motility in comparison to the negative control. Based on the evaluation of a wide concentration range, concentration-response curves as well as EC50-values were calculated.

Sequence of D. immitis Slo-1 (I0DFK5 1-1119): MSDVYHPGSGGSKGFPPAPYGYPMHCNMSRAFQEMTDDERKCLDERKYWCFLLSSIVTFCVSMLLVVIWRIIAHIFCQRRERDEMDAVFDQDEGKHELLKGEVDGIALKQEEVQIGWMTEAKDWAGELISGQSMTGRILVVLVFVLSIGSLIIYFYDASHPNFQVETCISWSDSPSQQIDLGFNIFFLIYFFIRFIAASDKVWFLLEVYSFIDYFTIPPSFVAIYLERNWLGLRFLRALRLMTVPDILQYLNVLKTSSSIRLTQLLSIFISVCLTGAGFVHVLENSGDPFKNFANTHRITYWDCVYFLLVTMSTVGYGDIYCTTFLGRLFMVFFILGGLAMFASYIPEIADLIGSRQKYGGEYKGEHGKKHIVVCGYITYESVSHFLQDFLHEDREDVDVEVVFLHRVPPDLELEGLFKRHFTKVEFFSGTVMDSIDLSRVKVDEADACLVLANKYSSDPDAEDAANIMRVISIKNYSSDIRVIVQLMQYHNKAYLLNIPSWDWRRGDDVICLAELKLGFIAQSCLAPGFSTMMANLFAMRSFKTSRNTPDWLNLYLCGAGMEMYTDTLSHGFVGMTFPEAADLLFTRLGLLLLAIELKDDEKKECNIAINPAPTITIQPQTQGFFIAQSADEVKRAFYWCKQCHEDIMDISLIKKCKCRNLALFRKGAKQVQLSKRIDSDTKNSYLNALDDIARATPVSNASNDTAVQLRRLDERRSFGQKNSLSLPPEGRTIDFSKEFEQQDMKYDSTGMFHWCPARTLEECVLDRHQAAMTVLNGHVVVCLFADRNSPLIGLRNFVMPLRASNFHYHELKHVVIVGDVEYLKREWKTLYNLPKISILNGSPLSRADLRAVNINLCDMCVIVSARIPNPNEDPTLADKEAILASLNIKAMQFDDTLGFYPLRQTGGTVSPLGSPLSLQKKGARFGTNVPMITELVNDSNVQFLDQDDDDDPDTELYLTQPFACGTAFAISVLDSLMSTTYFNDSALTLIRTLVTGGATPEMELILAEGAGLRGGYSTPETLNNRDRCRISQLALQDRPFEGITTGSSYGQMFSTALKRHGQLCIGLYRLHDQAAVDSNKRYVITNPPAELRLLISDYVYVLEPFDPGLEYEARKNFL

The term EC50 denotes the concentration needed to bring the measured effect to its halfway point. What is called mortality is the share of the test organisms that died. Regarding `CN(C)c1c(C(=O)N[C@H]2CCOc3ccccc32)cnc2c(-c3cccc(Cl)c3Cl)nccc12` [Example T1-2, 8-(2,3-Dichlorophenyl)-N-[(4S)-3,4-dihydro-2H-chromen-4-yl]-4-(dimethylamino)-1,7-naphthyridine-3-carboxamide], the EC50 in test [1] is 31.6 to 316 nM; in test [3] it was less than 0.1 µg/mL; in test [4], less than 0.1 µg/mL; in test [7] it was 3.16 to 31.6 nM. For the same compound, the inhibition at 1 µg/mL in test [2] was more than 80%. Further, the inhibition at 10 µg/mL in test [2] was more than 80%. In addition, the mortality at 4 ppm in test [5] worked out at 100%. The mortality at 20 ppm in test [5] came out at 100%; in test [6], 90%.
Take `O=C(N[C@H]1CCOc2ccccc21)c1cnc2c(-c3cc(Cl)cc(Cl)c3)nccc2c1N1CCOCC1` [Example T1-3, 8-(3,5-Dichlorophenyl)-N-[(4S)-3,4-dihydro-2H-chromen-4-yl]-4-(morpholin-4-yl)-1,7-naphthyridine-3-carboxamide]: the EC50 in test [1] was 31.6 to 316 nM; in test [3], less than 0.1 µg/mL; in test [4] it was less than 0.1 µg/mL; in test [7] it was 3.16 to 31.6 nM. Further, the inhibition at 1 µg/mL in test [2] was more than 80%. Moreover, the inhibition at 10 µg/mL in test [2] is more than 80%. The mortality at 4 ppm in test [5] is 100%. Besides, the mortality at 20 ppm in test [5] and in test [6] was 100% in each case.
For `O=C(N[C@H]1CCOc2ccccc21)c1cnc2c(-c3cccc(Cl)c3Cl)nccc2c1N1CCOCC1` [Example T1-4, 8-(2,3-Dichlorophenyl)-N-[(4S)-3,4-dihydro-2H-chromen-4-yl]-4-(morpholin-4-yl)-1,7-naphthyridine-3-carboxamide], the concentration for a half-maximal effect (EC50) in test [1] is 31.6 to 316 nM; in test [3], less than 0.1 µg/mL; in test [4] it was less than 0.1 µg/mL; in test [8], less than 0.1 µg/mL; in test [7] it was 3.16 to 31.6 nM. In addition, the inhibition at 1 µg/mL in test [2] is more than 80%. In test [2], the inhibition at 10 µg/mL was more than 80%. Moreover, in test [5], the mortality at 4 ppm came to 100%.
In the case of `O=C(N[C@H]1CCOc2ccccc21)c1cnc2c(-c3cc(Cl)cc(Cl)c3Cl)nccc2c1N1CCOCC1` [Example T1-6, N-[(4S)-3,4-dihydro-2H-chromen-4-yl]-4-(morpholin-4-yl)-8-(2,3,5-trichlorophenyl)-1,7-naphthyridine-3-carboxamide], the concentration for a half-maximal effect (EC50) in test [1] was 3.16 to 31.6 nM; in test [3] it was less than 0.1 µg/mL; in test [4], less than 0.1 µg/mL; in test [7] it was less than 3.16 nM. Further, the inhibition at 1 µg/mL in test [2] was more than 80%. Further, the mortality at 4 ppm in test [5] is 100%. In addition, the mortality at 20 ppm in test [5] and in test [6] was 100% in each case.
On to `CN(C)c1c(C(=O)N[C@H]2CCOc3ccccc32)cnc2c(-c3cccc(Cl)c3Cl)ncc(F)c12` [Example T1-10, 8-(2,3-dichlorophenyl)-N-[(4S)-3,4-dihydro-2H-1-benzopyran-4-yl]-4-(dimethylamino)-5-fluoro-1,7-naphthyridine-3-carboxamide], for which the EC50 was 31.6 to 316 nM in test [1]; less than 0.1 µg/mL in test [3]; less than 0.1 µg/mL in test [4]; less than 0.1 µg/mL in test [8]; 3.16 to 31.6 nM in test [7]. In addition, in test [2], the inhibition at 10 µg/mL is more than 80%.
On to `CN(C)c1c(C(=O)N[C@H]2CCOc3ccccc32)cnc2c(-c3cc(F)cc(F)c3F)ncc(F)c12` [Example T1-12, N-[(4S)-3,4-dihydro-2H-1-benzopyran-4-yl]-4-(dimethylamino)-5-fluoro-8-(2,3,5-trifluorophenyl)-1,7-naphthyridine-3-carboxamide], for which the concentration for a half-maximal effect (EC50) in test [1] was 31.6 to 316 nM; in test [3], less than 0.1 µg/mL; in test [4], less than 0.1 µg/mL; in test [8], less than 0.1 µg/mL. Moreover, in test [2], the inhibition at 1 µg/mL was more than 80%. In addition, the inhibition at 10 µg/mL in test [2] is more than 80%.
For `CN(C)c1c(C(=O)N[C@H]2CCOc3ccccc32)cnc2c(-c3cc(Cl)cc(Cl)c3)cncc12` [Example T2-1, 8-(3,5-Dichlorophenyl)-N-[(4S)-3,4-dihydro-2H-chromen-4-yl]-4-(dimethylamino)-1,6-naphthyridine-3-carboxamide], the concentration giving a half-maximal response (EC50) was 31.6 to 316 nM in test [1], less than 0.1 µg/mL in test [3], less than 0.1 µg/mL in test [4] and 3.16 to 31.6 nM in test [7]. Moreover, in test [2], the inhibition at 1 µg/mL was more than 80%. Further, in test [5], the mortality at 4 ppm worked out at 100%. Besides, the mortality at 20 ppm in test [5] and in test [6] was 100% in each case.
Turning to `O=C(N[C@H]1CCOc2ccccc21)c1cnc2c(-c3cccc(Cl)c3Cl)cncc2c1N1CCOCC1` [Example T2-3, 8-(2,3-Dichlorophenyl)-N-[(4S)-3,4-dihydro-2H-chromen-4-yl]-4-(morpholin-4-yl)-1,6-naphthyridine-3-carboxamide], the EC50 in test [1] was 3.16 to 31.6 nM; in test [3], less than 0.1 µg/mL; in test [4], less than 0.1 µg/mL; in test [7], 3.16 to 31.6 nM. Further, the inhibition at 1 µg/mL in test [2] was more than 80%. Besides, in test [5], the mortality at 4 ppm was 80%. Also, the mortality at 20 ppm in test [5] came to 100%; in test [6] it was 90%.
In the case of `COc1ncc(-c2cc(Cl)cc(Cl)c2)c2ncc(C(=O)N[C@H]3CCOc4ccccc43)c(N(C)C)c12` [Example T2-5, 8-(3,5-dichlorophenyl)-N-[(4S)-3,4-dihydro-2H-1-benzopyran-4-yl]-4-(dimethylamino)-5-methoxy-1,6-naphthyridine-3-carboxamide], the concentration giving a half-maximal response (EC50) in test [1] was 31.6 to 316 nM; in test [3], less than 0.1 µg/mL; in test [4], less than 0.1 µg/mL; in test [8] it was less than 0.1 µg/mL. Besides, the inhibition at 1 µg/mL in test [2] is more than 80%. The inhibition at 10 µg/mL in test [2] was more than 80%.
Take `COc1ncc(-c2cccc(Cl)c2Cl)c2ncc(C(=O)N[C@H]3CCOc4ccccc43)c(N(C)C)c12` [Example T2-12, 8-(2,3-dichlorophenyl)-N-[(4S)-3,4-dihydro-2H-1-benzopyran-4-yl]-4-(dimethylamino)-5-methoxy-1,6-naphthyridine-3-carboxamide]: the EC50 in test [1] is 31.6 to 316 nM; in test [3], less than 0.1 µg/mL; in test [4], less than 0.1 µg/mL; in test [8], less than 0.1 µg/mL; in test [7], less than 3.16 nM. The inhibition at 1 µg/mL in test [2] is more than 80%. Moreover, the inhibition at 10 µg/mL in test [2] is more than 80%.
Regarding `O=C(N[C@H]1CCOc2ccccc21)c1cnc2c(-c3cccc(Cl)c3Cl)ccnc2c1N1CCOCC1` [Example T3-4, 8-(2,3-Dichlorophenyl)-N-[(4S)-3,4-dihydro-2H-chromen-4-yl]-4-(morpholin-4-yl)-1,5-naphthyridine-3-carboxamide], the EC50 is 3.16 to 31.6 nM in test [1], less than 0.1 µg/mL in test [3], less than 0.1 µg/mL in test [4] and less than 3.16 nM in test [7]. Further, the inhibition at 1 µg/mL in test [2] is more than 80%. In test [5], the mortality at 4 ppm was 100%. The mortality at 20 ppm in test [5] and in test [6] was 100% throughout.
Take `COc1cnc2c(N(C)C)c(C(=O)N[C@H]3CCOc4ccccc43)cnc2c1-c1cc(F)cc(F)c1F` [Example T3-15, N-[(4S)-3,4-dihydro-2H-1-benzopyran-4-yl]-4-(dimethylamino)-7-methoxy-8-(2,3,5-trifluorophenyl)-1,5-naphthyridine-3-carboxamide]: the concentration giving a half-maximal response (EC50) in test [1] was 3.16 to 31.6 nM; in test [3], less than 0.1 µg/mL; in test [4], less than 0.1 µg/mL; in test [8] it was less than 0.1 µg/mL. Besides, the inhibition at 1 µg/mL in test [2] was more than 80%. Moreover, the inhibition at 10 µg/mL in test [2] is more than 80%.
For `CN(C)c1c(C(=O)N[C@H]2CCOc3ccccc32)cnc2c(-c3cccc(Cl)c3Cl)c(F)cnc12` [Example T3-17, 8-(2,3-dichlorophenyl)-N-[(4S)-3,4-dihydro-2H-1-benzopyran-4-yl]-4-(dimethylamino)-7-fluoro-1,5-naphthyridine-3-carboxamide], the concentration giving a half-maximal response (EC50) in test [1] is 3.16 to 31.6 nM; in test [3] it was less than 0.1 µg/mL; in test [4], less than 0.1 µg/mL; in test [8] it was less than 0.1 µg/mL. Besides, the inhibition at 1 µg/mL in test [2] is more than 80%. For the same compound, the inhibition at 10 µg/mL in test [2] was more than 80%.
For `O=C(N[C@H]1CCOc2ccccc21)c1cnc2c(-c3cc(F)cc(F)c3F)c(F)cnc2c1N1CCOCC1` [Example T3-20, N-[(4S)-3,4-dihydro-2H-1-benzopyran-4-yl]-7-fluoro-4-(morpholin-4-yl)-8-(2,3,5-trifluorophenyl)-1,5-naphthyridine-3-carboxamide], the EC50 in test [1] was 3.16 to 31.6 nM; in test [3], less than 0.1 µg/mL; in test [4] it was less than 0.1 µg/mL; in test [8], less than 0.1 µg/mL. The inhibition at 1 µg/mL in test [2] is more than 80%. Also, the inhibition at 10 µg/mL in test [2] is more than 80%.
Consider `COc1c(C(=O)N[C@H]2CCOc3ccccc32)nnc2c(-c3cc(Cl)cc(Cl)c3)cccc12` [Example T5-5, 8-(3,5-Dichlorophenyl)-N-[(4S)-3,4-dihydro-2H-chromen-4-yl]-4-methoxycinnoline-3-carboxamide], for which the 50% effective concentration (EC50) in test [1] was 31.6 to 316 nM; in test [3], less than 0.1 µg/mL; in test [4] it was less than 0.1 µg/mL; in test [7] it was 3.16 to 31.6 nM. Further, in test [2], the inhibition at 1 µg/mL is more than 80%. In addition, the mortality at 4 ppm in test [5] was 80%. In addition, the mortality at 20 ppm in test [5] and in test [6] was 80% in each case.
